Experimental data: patent US20170298437A1, “METHODS AND USES RELATED TO RHABDOID TUMORS” (The Hospital For Sick Children, priority 2016, published 2017)
“Also recorded” adds a separate entry of the source.

Tests used:
group 1 ATRT cell lines = experiment: MTS cell viability assay on group 1 ATRT cell lines; assay type: cell-based, human; details: for growth inhibitory effects / sensitivity: epigenetic inhibitors
Experimental: (§1) ATRT cell line CHLA02 (ATCC, Cat #CRL-3020), CHLA04 (ATCC, Cat #CRL-3036) were cultured according to the manufacturer's protocol. CHLA05 and CHLA06 cells, which were derived from primary ATRTs by Dr. Anat Erdreich-Epstein from the Children's Hospital of Los Angeles, were cultured in DMEM/F12 supplemented with 20 ng/mL FGF, 20 ng/mL EGF, and 1× B27 supplement. SH cells were obtained from Dr. Shih Hwa Choiu at Taipei Veterans General Hospital and was cultured as previously described (Kao et al., 2005). BT12 and BT16, which were kind gifts from Dr. Peter Houghton at Nationalwide Children's Hospital, were cultured in RPMI-1640 supplemented with 10% FBS. ATRT 78C cells was established from a corresponding primary ATRT (T13; diagnosed at The Hospital for Sick Children) and cultured in Neurobasal medium supplemented with 75 ng/mL BSA, 10 ng/mL FGF1, 10 ng/mL EGF, 2 ug/mL Heparin, 1× B27 and 1× N2 supplements. CHLA266 was grown in IMEM media with 10% FBS and 1× ITS. G401 (ATCC, Cat #CRL-1441) was grown in McCoy's 5A media with 10% FBS.
(§2) To assess effects of NOTCH and BMP signaling on ATRT cell phenotypes, cells were treated with N-[N-(3,5-Difluorophenacetyl)-L-alanyl]-S-phenylglycine t-butyl ester (DAPT; EMD Chemicals, Germany, Cat #565770) or Dorsomorphin (DM; Sigma-Aldrich, USA, Cat #P5499) and analyzed using MTS assays for cell viability. […] For epigenomic drug screening experiments, conditions were set up identically with the exception of absorbance readings being taken at 3 and 7 days post-treatment. Cell viability was determined based on mean cell absorbance at 492 nm.

group 2 ATRT cell lines = experiment: MTS cell viability assay on group 2 ATRT cell lines; assay type: cell-based, human; details: for changes in growth / sensitivity: group 2 cell lines (SH, CHLA06, BT16, BT12), epigenetic inhibitors
Experimental: as §1, §2

ATRT cell lines = experiment: MTS cell viability screen of epigenetic probes on the whole ATRT cell line panel (4 group 1 and 4 group 2); assay type: cell-based, human; details: 4 group 1 and 4 group 2 cell lines, varying doses
From the text: Recent studies have reported promising therapeutic agents targeting a number of epigenetic and signaling pathways in ATRTs (Ginn and Gajjar, 2012), however the relevance of these agents to ATRT sub-types is unknown as these prior studies have examined a very limited number of cell lines. To identify additional ATRT sub-group specific pathways/targets, the effects of 12 small molecule inhibitors/chemical probes targeting epigenetic pathways on growth of 4 group 1 (CHLA266, CHLA04, 02, 05) and 4 group 2 ATRT (SH, CHLA06, BT16 and BT12) cell lines (FIG. 18A) were tested.
as §1, §2

[1] = system: G401, a cell line derived from a renal rhabdoid tumor; experiment: Growth of G401 renal rhabdoid tumor cell line; assay type: cell-based, human; details: data not shown
Experimental: as §1

[2] = cited from earlier work
NOTCH signaling = experiment: Western blot and qRT-PCR analyses of NOTCH signaling in group 1 ATRT cell lines; assay type: cell-based, human; details: group 1 cell lines 78C, CHLA02, CHLA05
Experimental: Nuclear and whole cell lysates were prepared using cytosol lysis buffer or nuclear buffer F (Sommer et al., 1998) respectively and immunoblotted with antibodies to SMARCB1/BAF47 (BD Biosciences, USA, Cat #612110), cleaved NOTCH1 (Cell Signaling, USA, Cat #2421S), pSMAD1/5 (Cell Signaling, USA, Cat #95165), SMAD1 (Cell Signaling, USA, Cat #9743S) or a-Tubulin (Sigma-Aldrich, USA, Cat #T9026) as per standard methods. Phospho-PDGFRβ P70 was obtained from Santa Cruz Biotechnology (Santa Cruz, Calif. USA, Cat #sc-12909-R). BAF47 immuno-staining of tumor samples was performed by the Hospital for Sick Children Pathology Department (Toronto, ON, Canada) as per standard clinical protocols.
cDNAs were synthesized from high quality RNA using the High Capacity cDNA Reverse Transcription Kit (Applied Biosystem, Cat #4368814) as per the manufacturer's instructions and qRT-PCR analyses were performed using purchased Taqman probes and the TaqMan® Gene Expression Master Mix (Invitrogen) (BAMBI, SOST, BCR [exon2, 8, 16, 18, 21, 23], RGL4, CHCHD10, MMP11, SMARCB1 [exon 2, 5]). A subset of analyses was performed with Platinum SYBR Green qPCR reagent kit (Invitrogen) as per the manufacturer's protocol with in-house designed primers to amplify invariant exons (HES1, HES5). […] Synthesized cDNA were analysed with gene specific probes using the Platinum SYBR green qPCR reagent kit. […]

[3] = system: group 1 (CHLA02) ATRT cell line; experiment: TUNEL assay in group 1 ATRT cell line; assay type: cell-based, human
Experimental: TUNEL assays were performed using in situ cell death detection kit, Fluorescein, according to manufacturer's instructions (Roche, West Sussex, UK). Pictures were taken at 20× magnification. Percentage of TUNEL positive population was calculated with respect to DAPI-positive cells, in five random fields per cell cultured slide, and averaged as representative population. Fold-changes were obtained by comparing with untreated control. Cell migration and invasive phenotypes of ATRT cell lines was assessed using a Transwell Boyden chamber assay according to manufacturer's instructions (BD Science). In brief, 3.5×10^3 cells were seeded onto membranes with 8 μm pores in Boyden chambers, and incubated at 37° C. Membranes were removed after 18 hours and examined at 10× magnification under the microscope. To enumerate the number of cells that had invaded and migrated, cell counts from five random fields on the membrane was used to estimate the total number of cells migrated across the transwell membrane.

Row | SMILES | growth inhibitory effects / sensitivity (group 1 ATRT cell lines; group 1 ATRT cell lines, MTS) | changes in growth / sensitivity (group 2 ATRT cell lines; varying doses, MTS) | effect on ATRT cell growth across sub-groups (ATRT cell lines) | also measured
1 | CCCc1cc(C)[nH]c(=O)c1CNC(=O)c1cc(-c2ccc(N3CCN(C(C)C)CC3)nc2)cc2c1cnn2C(C)C [UNC1999] | growth inhibitory effects were observed only in group 1 ATRT cell lines | 3 of the 4 group 2 cell lines showed no changes in growth and largely insensitive | sub-group specific effect | –
2 | Cc1cn(-c2cc(NC(=O)c3ccc(C)c(Nc4nccc(-c5cccnc5)n4)c3)cc(C(F)(F)F)c2)cn1 [Nilotinib] | – | – | – | growth / sensitivity to tyrosine kinase inhibitor (group 1 ATRT cell lines; group 1 ATRT cell lines, MTS, 5 days): resistant; growth / sensitivity to tyrosine kinase inhibitor (group 2 ATRT cell lines; group 2 ATRT cell lines, MTS, 5 days): robustly diminished growth; also recorded: sensitive; growth of G401 [1]: robustly inhibit the growth
3 | O=C(/C=C/c1ccc(CN(CCO)CCc2c[nH]c3ccccc23)cc1)NO [LAQ824] | – | – | significantly diminished growth of all cell lines; also recorded: no sub-type specific effects | –
4 | COc1cc2c(NC3CCN(C(C)C)CC3)nc(C3CCCCC3)nc2cc1OCCCN1CCCC1 [UNC0638] | only group 1 ATRT cell lines were sensitive | 3 of the 4 group 2 cell lines showed no changes in growth and largely insensitive | sub-group specific effect | –
5 | Cc1sc2c(c1C)C(c1ccc(Cl)cc1)=N[C@@H](CC(=O)OC(C)(C)C)c1nnc(C)n1-2 [JQ1, (S)-tent-butyl 2-(4-(4-chlorophenyl)-2,3,9-trimethyl-6H-thieno[3,2-f][1,2,4]triazolo[4,3-a][1,4]diazepin-6-yl)acetate] | growth inhibitory effects were observed only in group 1 ATRT cell lines | 3 of the 4 group 2 cell lines showed no changes in growth | sub-group specific effect | –
6 | Cc1nc(Nc2ncc(C(=O)Nc3c(C)cccc3Cl)s2)cc(N2CCN(CCO)CC2)n1 [Dasatinib] | – | – | – | blood brain permeability [2]: demonstrated blood brain permeability
7 | C[C@H](NC(=O)Cc1cc(F)cc(F)c1)C(=O)N[C@H](C(=O)OC(C)(C)C)c1ccccc1 [DAPT, N-[N-(3,5-difluorophenacetyl)-L-alanyl]-S-phenylglycine t-butyl ester] | – | – | – | cell line growth (cell viability, MTS) (group 1 ATRT cell lines; group 1 (78C, CHLA05, CHLA02), DAPT or DM, varying doses, days 1-5, relative to DMSO): inhibited group 1 and 2 ATRT cell line growth in a dose dependent manner; also recorded: sensitive; cell line growth (cell viability, MTS) (group 2 ATRT cell lines; group 2A/B (SH, CHLA06, BT16), DAPT or DM, varying doses, days 1-5, relative to DMSO): no significant effects on cell growth; also recorded: largely insensitive; NICD expression (NOTCH signaling; Western blot, increasing doses): dose dependent decrease in NICD expression; NOTCH transcriptional targets, HES1 and HESS (NOTCH signaling; qRT-PCR, four days post-treatment): downregulation; cell death / apoptosis (TUNEL) [3]: increased cell death; also recorded: induced apopotosis
